Laboratory results taken from article PMC6155659, “Application of the Triazolization Reaction to Afford Dihydroartemisinin Derivatives with Anti-HIV Activity” (Molecules : A Journal of Synthetic Chemistry and Natural …, 2017).
Read-outs that look alike come from different tables or passages of the source.

Assays:
[1] = Cytotoxicity in mock-infected MT-4 cell cultures, MTT method; type: cell-based; conditions: human
Description: (§1) The newly synthesized dihydroartemisinin triazole derivatives were evaluated for their inhibitory effects (IC50) on the replication of wild-type HIV-1 (IIIB) and HIV-2 (ROD) in MT-4 cell cultures, in parallel with their cytotoxicities (CC50) using the 3-(4,5-dimethylthiazol-2-yl)-2,5-diphenyl tetrazolium bromide (MTT) method. A series of nucleoside reverse transcriptase inhibitors (NRTIs)—i.e., azidothymidine (AZT), lamivudine (3TC) and didanosine (DDI)—and non-nucleoside reverse transcriptase inhibitors (NNRTIs)—i.e., nevirapine (NVP), efavirenz (EFV), and etravirine (ETR)—were included as reference compounds. The biological results are represented as IC50 and CC50 values in Table 3.

wild-type HIV-1 (IIIB) = assay: Anti-HIV-1 (IIIB) activity in MT-4 cell cultures, MTT method; type: cell-based; conditions: for anti-HIV-1 wild-type activity (in words): MT-4 cells, HIV-1 IIIB
Description: as §1

HIV-2 (ROD) = assay: Anti-HIV-2 (ROD) activity in MT-4 cell cultures, MTT method; type: cell-based
Description: as §1

[2] = tested on: double reverse transcriptase mutant (K103N; Y181C) HIV-1 strain (RES056); assay: Activity against double reverse transcriptase mutant HIV-1 strain RES056 in MT-4 cell cultures, MTT method; type: cell-based; conditions: for IC50: Human immunodeficiency virus 1, MT4, read-out: IC50 HIV-1 Strain RES056; for inhibitory activity against RES056 (in words): K103N, Y181C double RT mutant HIV-1, MT-4 cells
Description: as §1
Most of the new triazole analogues of dihydroartemisinin are completely devoid of anti-HIV activity. […] The active molecules were also evaluated for their inhibitory activity against a double reverse transcriptase mutant (K103N; Y181C) HIV-1 strain (RES056). […] Therefore, the active β-tetralone derivatives most probably act via an NNRTI-type mode of action.

MT-4 cells = assay: Cytotoxicity in mock-infected MT-4 cell cultures, MTT method; type: cell-based; conditions: cell culture
Description: as §1

[3] = Human immunodeficiency virus 1, IIIB, MT4, 50% protection of MT-4 cell cultures against virus-induced cytotoxicity, MTT method, read-out: IC50 HIV-1 Strain IIIB
[4] = Human immunodeficiency virus 2, MT4, 50% protection of MT-4 cell cultures against virus-induced cytotoxicity, MTT method, read-out: IC50 HIV-2 Strain ROD
[5] = mock-infected MT-4 cells, concentration reducing viability of mock-infected MT-4 cell cultures by 50%, MTT method, read-out: CC50
[6] = Human immunodeficiency virus 2, MT4, read-out: IC50 HIV-2 Strain ROD
[7] = concentration reducing viability of mock-infected MT-4 cell cultures by 50%, MTT method, read-out: CC50

Row | SMILES | melting point | IC50 (wild-type HIV-1 (IIIB); [3]) | IC50 (HIV-2 (ROD); [4]) | IC50 [2] | CC50 [1, 5] | anti-HIV-1 wild-type activity (in words) (wild-type HIV-1 (IIIB)) | IC50 (HIV-2 (ROD); [6]) | inhibitory activity against RES056 (in words) [2] | further results
1 | COc1cc(Cn2nnc3c2CCC(C(=O)O[C@@H]2O[C@@H]4O[C@@]5(C)CCC6[C@H](C)CC[C@@H]([C@H]2C)[C@]64OO5)C3)cc(OC)c1OC (stereo partly drawn) | 80 to 81 °C |  |  |  |  |  |  |  | 
2 | C[C@H]1[C@H](OCCn2nncc2-c2ccc(Br)c(Br)c2)O[C@@H]2O[C@@]3(C)CCC4[C@H](C)CC[C@@H]1[C@]42OO3 (stereo partly drawn) | 105 to 106 °C |  |  |  |  |  |  |  | 
3 | C[C@H]1[C@H](OCCn2nnc3c2C[C@@H]2CC[C@@H]4[C@H](CC[C@]5(C)[C@@H](O)CC[C@@H]45)[C@@]2(C)C3)O[C@@H]2O[C@@]3(C)CCC4[C@H](C)CC[C@@H]1[C@]42OO3 (stereo partly drawn) | 96 to 97 °C |  |  |  |  |  |  |  | 
4 | Cc1cn([C@H]2C[C@H](N=[N+]=[N-])[C@@H](CO)O2)c(=O)[nH]c1=O [Azidothymidine, azidothymidine, reference compound] |  | 0.0064 µM | 0.0082 µM | 0.0071 µM |  |  |  |  | CC50 [1]: > 7.5 µM
5 | C[C@H]1[C@H](OCCn2nnc3c2-c2ccccc2CC3)O[C@@H]2O[C@@]3(C)CCC4[C@H](C)CC[C@@H]1[C@]42OO3 (stereo partly drawn) [Compound 8a, 1-(2-(((3R,6R,8aS,9R,10R,12R,12aR)-3,6,9-Trimethyldecahydro-12H-3,12-epoxy[1,2]dioxepino[4,3-i]isochromen-10-yl)oxy)ethyl)-4,5-dihydro-1H-naphtho[1,2-d][1,2,3]triazole] |  | > 10.3 µM | > 10.3 µM |  | > 10.3 µM | did not show any activity |  |  | 
6 | C[C@H]1[C@H](OCCn2nnc3c2CCc2ccccc2-3)O[C@@H]2O[C@@]3(C)CCC4[C@H](C)CC[C@@H]1[C@]42OO3 (stereo partly drawn) [Compound 8b, 3-(2-(((3R,6R,8aS,9R,10R,12R,12aR)-3,6,9-Trimethyldecahydro-12H-3,12-epoxy[1,2]dioxepino[4,3-i]isochromen-10-yl)oxy)ethyl)-4,5-dihydro-3H-naphtho[1,2-d][1,2,3]triazole] | 104 to 105 °C | 2.78 µM |  | > 31.5 µM | 31.5 µM | inhibitory to HIV-1 replication | > 31.5 µM | completely lose their inhibitory activity | cytotoxicity (in words) (MT-4 cells): limited cytotoxicity
7 | COc1cc2c(cc1OC)-c1nnn(CCO[C@@H]3O[C@@H]4O[C@@]5(C)CCC6[C@H](C)CC[C@@H]([C@H]3C)[C@]64OO5)c1CC2 (stereo partly drawn) [Compound 8c, 7,8-Dimethoxy-3-(2-(((3R,6R,8aS,9R,10R,12R,12aR)-3,6,9-trimethyldecahydro-12H-3,12-epoxy[1,2]dioxepino[4,3-i]isochromen-10-yl)oxy)ethyl)-4,5-dihydro-3H-naphtho[1,2-d][1,2,3]triazole] |  | 4.06 µM |  | > 21.2 µM | 21.2 µM | inhibitory to HIV-1 replication | > 21.2 µM | completely lose their inhibitory activity | cytotoxicity (in words) (MT-4 cells): limited cytotoxicity
8 | COc1ccc2c(c1)-c1nnn(CCO[C@@H]3O[C@@H]4O[C@@]5(C)CCC6[C@H](C)CC[C@@H]([C@H]3C)[C@]64OO5)c1CC2 (stereo partly drawn) [Compound 8e, 8-Methoxy-3-(2-(((3R,6R,8aS,9R,10R,12R,12aR)-3,6,9-trimethyldecahydro-12H-3,12-epoxy[1,2]dioxepino[4,3-i]isochromen-10-yl)oxy)ethyl)-4,5-dihydro-3H-naphtho[1,2-d][1,2,3]triazole] |  | 5.18 µM |  | > 14.9 µM | 14.9 µM | inhibitory to HIV-1 replication | > 14.9 µM | completely lose their inhibitory activity | cytotoxicity (in words) (MT-4 cells): limited cytotoxicity
9 | O=c1[nH]cnc2c1ncn2[C@H]1CC[C@@H](CO)O1 [Didanosine, didanosine, reference compound] |  | 76 µM | 82.1 µM |  |  |  |  |  | CC50 [1]: > 212 µM
10 | O=C1Nc2ccc(Cl)cc2[C@@](C#CC2CC2)(C(F)(F)F)O1 [Efavirenz, efavirenz] |  | 0.0024 µM | > 6.3 µM | 0.18 µM |  |  |  | only slightly affected | CC50 [1, 7]: > 6.3 µM
11 | Cc1cc(C#N)cc(C)c1Oc1nc(Nc2ccc(C#N)cc2)nc(N)c1Br [Etravirine, etravirine] |  |  |  | 0.045 µM | 2.29 µM |  | > 2.29 µM | only slightly affected | IC50 (wild-type HIV-1 (IIIB); Human immunodeficiency virus 1, MT4, read-out: IC50 HIV-1 Strain IIIB): 0.0034 µM
12 | Nc1ccn([C@@H]2CS[C@H](CO)O2)c(=O)n1 [Lamivudine, lamivudine, reference compound] |  | 2.53 µM | 9.9 µM |  |  |  |  |  | CC50 [1]: > 87.2 µM
13 | Cc1ccnc2c1NC(=O)c1cccnc1N2C1CC1 [Nevirapine, nevirapine] |  | 0.075 µM | > 15 µM | > 15 µM |  |  |  | completely lose their inhibitory activity | CC50 [1, 7]: > 15 µM
